# Tested on: HOP-62 complex spheroids with HUVEC/MSC, viability
# Experiment: Anticancer human tumor HOP-62 cell line growth inhibition [RAS];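 note: spheroids exposed to agents for seven days before readout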;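 for viability, T/C: 100% = DMSO vehicle control viability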
# Details: for IC50: curve of first compound; for viability, T/C: stronger effect = lower value
# Procedure, shortened: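 Tumour cells grown as complex spheroids with HUVEC endothelial cells and mesenchymal stem cells, treated with RAS pathway inhibitor combinations. Each agent spans half-log steps from near clinical Cmax, or 10 microM where Cmax is unknown.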
# [1] = second compound 0.000949 µM, first compound 0.000949 µM
# [2] = second compound 0.000949 µM, first compound 0.003 µM
# [3] = second compound 0.000949 µM, first compound 0.00949 µM
# [4] = second compound 0.000949 µM, first compound 0.03 µM
# [5] = second compound 0.000949 µM, first compound 0.0949 µM
# [6] = second compound 0.000949 µM, first compound 0.3 µM
# [7] = second compound 0.003 µM, first compound 0.000949 µM
# [8] = second compound 0.003 µM, first compound 0.003 µM
# [9] = second compound 0.003 µM, first compound 0.00949 µM
# [10] = second compound 0.003 µM, first compound 0.03 µM
# [11] = second compound 0.003 µM, first compound 0.0949 µM
# [12] = second compound 0.003 µM, first compound 0.3 µM
# [13] = second compound 0.00949 µM, first compound 0.000949 µM
# [14] = second compound 0.00949 µM, first compound 0.003 µM
# [15] = second compound 0.00949 µM, first compound 0.00949 µM
# [16] = second compound 0.00949 µM, first compound 0.03 µM
# [17] = second compound 0.00949 µM, first compound 0.0949 µM
# [18] = second compound 0.00949 µM, first compound 0.3 µM
# [19] = second compound 0.03 µM, first compound 0.000949 µM
# [20] = second compound 0.03 µM, first compound 0.003 µM
# [21] = second compound 0.03 µM, first compound 0.00949 µM
# [22] = second compound 0.03 µM, first compound 0.03 µM
# [23] = second compound 0.03 µM, first compound 0.0949 µM
# [24] = second compound 0.03 µM, first compound 0.3 µM
# [25] = second compound 0.0949 µM, first compound 0.000949 µM
# [26] = second compound 0.0949 µM, first compound 0.003 µM
# [27] = second compound 0.0949 µM, first compound 0.00949 µM
# [28] = second compound 0.0949 µM, first compound 0.03 µM
# [29] = second compound 0.0949 µM, first compound 0.0949 µM
# [30] = second compound 0.0949 µM, first compound 0.3 µM
# [31] = second compound 0.3 µM, first compound 0.000949 µM
# [32] = second compound 0.3 µM, first compound 0.003 µM
# [33] = second compound 0.3 µM, first compound 0.00949 µM
# [34] = second compound 0.3 µM, first compound 0.03 µM
# [35] = second compound 0.3 µM, first compound 0.0949 µM
# [36] = second compound 0.3 µM, first compound 0.3 µM
compound,measurement,setting,value
C=CC(=O)N1CCN(c2nc(OCC3CCCN3C)nc3c(F)c(-c4nc(N)cc(C)c4C(F)(F)F)c(Cl)cc23)C(C)C1 (stereo unspecified) + CCn1c(-c2cc(N3CCN(C)CC3)cnc2C(C)OC)c2c3cc(ccc31)-c1csc(n1)CC(NC(=O)C1CC1C)C(=O)N1CCCC(N1)C(=O)OCC(C)(C)C2,IC50,second compound 0.000949 µM,> 1000 nM
same,IC50,second compound 0.003 µM,> 1000 nM
same,IC50,second compound 0.00949 µM,> 1000 nM
same,IC50,second compound 0.03 µM,< 3.16 nM
same,IC50,second compound 0.0949 µM,< 3.16 nM
same,IC50,second compound 0.3 µM,< 3.16 nM
same,"viability, T/C","second compound 0.000949 µM, first compound 0.00316 µM",92.6%
same,"viability, T/C","second compound 0.000949 µM, first compound 0.01 µM",85.2%
same,"viability, T/C","second compound 0.000949 µM, first compound 0.0316 µM",66.2%
same,"viability, T/C","second compound 0.000949 µM, first compound 0.1 µM",88.2%
same,"viability, T/C","second compound 0.000949 µM, first compound 0.316 µM",84%
same,"viability, T/C","second compound 0.000949 µM, first compound 1 µM",66.1%
same,"viability, T/C","second compound 0.003 µM, first compound 0.00316 µM",75.6%
same,"viability, T/C","second compound 0.003 µM, first compound 0.01 µM",75.9%
same,"viability, T/C","second compound 0.003 µM, first compound 0.0316 µM",69.2%
same,"viability, T/C","second compound 0.003 µM, first compound 0.1 µM",74.2%
same,"viability, T/C","second compound 0.003 µM, first compound 0.316 µM",78.5%
same,"viability, T/C","second compound 0.003 µM, first compound 1 µM",54.5%
same,"viability, T/C","second compound 0.00949 µM, first compound 0.00316 µM",70.7%
same,"viability, T/C","second compound 0.00949 µM, first compound 0.01 µM",52.2%
same,"viability, T/C","second compound 0.00949 µM, first compound 0.0316 µM",52.9%
same,"viability, T/C","second compound 0.00949 µM, first compound 0.1 µM",59.8%
same,"viability, T/C","second compound 0.00949 µM, first compound 0.316 µM",49.7%
same,"viability, T/C","second compound 0.00949 µM, first compound 1 µM",46.1%
same,"viability, T/C","second compound 0.03 µM, first compound 0.00316 µM",46.8%
same,"viability, T/C","second compound 0.03 µM, first compound 0.01 µM",43.2%
same,"viability, T/C","second compound 0.03 µM, first compound 0.0316 µM",43.5%
same,"viability, T/C","second compound 0.03 µM, first compound 0.1 µM",32.2%
same,"viability, T/C","second compound 0.03 µM, first compound 0.316 µM",31.3%
same,"viability, T/C","second compound 0.03 µM, first compound 1 µM",38.5%
same,"viability, T/C","second compound 0.0949 µM, first compound 0.00316 µM",35.6%
same,"viability, T/C","second compound 0.0949 µM, first compound 0.01 µM",37.1%
same,"viability, T/C","second compound 0.0949 µM, first compound 0.0316 µM",34%
same,"viability, T/C","second compound 0.0949 µM, first compound 0.1 µM",36.7%
same,"viability, T/C","second compound 0.0949 µM, first compound 0.316 µM",29.2%
same,"viability, T/C","second compound 0.0949 µM, first compound 1 µM",27.2%
same,"viability, T/C","second compound 0.3 µM, first compound 0.00316 µM",39.4%
same,"viability, T/C","second compound 0.3 µM, first compound 0.01 µM",52.7%
same,"viability, T/C","second compound 0.3 µM, first compound 0.0316 µM",37.7%
same,"viability, T/C","second compound 0.3 µM, first compound 0.1 µM",28.8%
same,"viability, T/C","second compound 0.3 µM, first compound 0.316 µM",31.7%
same,"viability, T/C","second compound 0.3 µM, first compound 1 µM",31.6%
CC1(C)CCC(Nc2ncc(C(F)(F)F)c(-c3c[nH]c4c(P(C)(C)=O)c(C#N)ccc34)n2)CN1 (stereo unspecified) + CCn1c(-c2cc(N3CCN(C)CC3)cnc2C(C)OC)c2c3cc(ccc31)-c1csc(n1)CC(NC(=O)C1CC1C)C(=O)N1CCCC(N1)C(=O)OCC(C)(C)C2,IC50,second compound 0.000949 µM,> 300 nM
same,IC50,second compound 0.003 µM,274 nM
same,IC50,second compound 0.00949 µM,> 300 nM
same,IC50,second compound 0.03 µM,> 300 nM
same,IC50,second compound 0.0949 µM,> 300 nM
same,IC50,second compound 0.3 µM,< 0.949 nM
same,"viability, T/C",[1],106%
same,"viability, T/C",[2],95.9%
same,"viability, T/C",[3],54.9%
same,"viability, T/C",[4],71.5%
same,"viability, T/C",[5],76.7%
same,"viability, T/C",[6],38.8%
same,"viability, T/C",[7],83%
same,"viability, T/C",[8],73%
same,"viability, T/C",[9],61.9%
same,"viability, T/C",[10],74%
same,"viability, T/C",[11],79.7%
same,"viability, T/C",[12],48%
same,"viability, T/C",[13],68.3%
same,"viability, T/C",[14],52.8%
same,"viability, T/C",[15],67.2%
same,"viability, T/C",[16],68.7%
same,"viability, T/C",[17],67.8%
same,"viability, T/C",[18],54.1%
same,"viability, T/C",[19],50.9%
same,"viability, T/C",[20],56.4%
same,"viability, T/C",[21],72.1%
same,"viability, T/C",[22],74.3%
same,"viability, T/C",[23],51.6%
same,"viability, T/C",[24],66%
same,"viability, T/C",[25],49.5%
same,"viability, T/C",[26],59%
same,"viability, T/C",[27],64.4%
same,"viability, T/C",[28],66.1%
same,"viability, T/C",[29],51.4%
same,"viability, T/C",[30],70.2%
same,"viability, T/C",[31],43.8%
same,"viability, T/C",[32],59.2%
same,"viability, T/C",[33],70.8%
same,"viability, T/C",[34],56.9%
same,"viability, T/C",[35],66.1%
same,"viability, T/C",[36],70.7%
CCc1c2c(nc3ccc(O)cc13)-c1cc3c(c(=O)n1C2)COC(=O)[C@]3(O)CC + CCn1c(-c2cc(N3CCN(C)CC3)cnc2C(C)OC)c2c3cc(ccc31)-c1csc(n1)CC(NC(=O)C1CC1C)C(=O)N1CCCC(N1)C(=O)OCC(C)(C)C2,IC50,second compound 0.000949 µM,1.77 nM
same,IC50,second compound 0.003 µM,1.54 nM
same,IC50,second compound 0.00949 µM,1.14 nM
same,IC50,second compound 0.03 µM,< 0.949 nM
same,IC50,second compound 0.0949 µM,< 0.949 nM
same,IC50,second compound 0.3 µM,< 0.949 nM
same,"viability, T/C",[1],83.8%
same,"viability, T/C",[2],21.2%
same,"viability, T/C",[3],9.03%
same,"viability, T/C",[4],7.89%
same,"viability, T/C",[5],5.5%
same,"viability, T/C",[6],1.91%
same,"viability, T/C",[7],72.3%
same,"viability, T/C",[8],18.9%
same,"viability, T/C",[9],13.3%
same,"viability, T/C",[10],11.4%
same,"viability, T/C",[11],7.41%
same,"viability, T/C",[12],4.35%
same,"viability, T/C",[13],55.1%
same,"viability, T/C",[14],25.2%
same,"viability, T/C",[15],17.4%
same,"viability, T/C",[16],13.7%
same,"viability, T/C",[17],11.1%
same,"viability, T/C",[18],9.59%
same,"viability, T/C",[19],45.6%
same,"viability, T/C",[20],32%
same,"viability, T/C",[21],21.1%
same,"viability, T/C",[22],15.6%
same,"viability, T/C",[23],13.1%
same,"viability, T/C",[24],13.2%
same,"viability, T/C",[25],34.5%
same,"viability, T/C",[26],32.5%
same,"viability, T/C",[27],19.7%
same,"viability, T/C",[28],14.7%
same,"viability, T/C",[29],12.9%
same,"viability, T/C",[30],13.6%
same,"viability, T/C",[31],37.8%
same,"viability, T/C",[32],25.2%
same,"viability, T/C",[33],18.5%
same,"viability, T/C",[34],15.8%
same,"viability, T/C",[35],21.9%
same,"viability, T/C",[36],15.8%

# Source: PubChem BioAssay AID2060892 (Molecular Pharmacology Branch, DTP, NCI, 2025)
